From patent US12071424B2, “IRE1 small molecule inhibitors” (Cornell University, priority 2017, dated 2024)
pEC50, pIC50: −log10 of the molar value.

Experiments:
IRE1a [1] = target: T1, IRE1a (Homo sapiens, UniProt O75460); experiment: In vitro FRET assay (IRE1a cleavage of XBP1 RNA probe); type: biochemical; details: 2 nM SignalChem IRE1a, tested as Formic Acid Salt (37: HCl Salt)
T1 construct: purchased SignalChem
Description: In vitro FRET assay was performed to evaluate the ability of select compounds to inhibit IRE1, the results of which are summarized in Table 3. To perform the in vitro FRET assay, 1× complete assay buffer (CAB: […], 50 mM sodium citrate pH 7.15, 1 mM magnesium acetate, 0.02% tween 20) was used to SignalChem IRE1a protein to a final concentration of 2 nM. Selected compounds were serially diluted with DMSO in a non-binding black 384-well plate for a total of 15 ul in each well. 2 ul of the serially diluted compound or DMSO control were then added to new wells containing 98 ul of 1× CAB, for a total volume of 100 ul, 10 ul of which were then transferred to wells of a new plate. 5 ul of the diluted IRE1a was then added to each well. 5 ul of a […] XBP1 RNA probe was then added to each well. Fluorescence was then read over 30 minutes in kinetic mode (485/515 nm).
Two RNA probes were used, XBP1 wildtype (SEQ ID NO: 2) which is able to be spliced by active IRE1a or XBP1 mutant (SEQ ID NO: 3) which is unable to be spliced. Each probe contained a 5′ 6-FAM modification and a 3′ IOWA black FQ modification. […]

IRE1a [2] = experiment: IRE1a Endoribonuclease Nanoluciferase Assay (XBP1 luciferase reporter in 293T cells); type: cell-based, human; details: Homo sapiens, HEK-293T, ER stressor, tested as Formic Acid Salt (37: HCl Salt)
Description: Compounds disclosed herein assessed for disruption of IRE1 signaling using a IRE1a Endoribonuclease Nanoluciferase Assay. Briefly, 25×10^5 293T cells were seeded in a 10 cm^2 tissue culture plate. About 24 hours later, the cells were transfected with Effectene. In a 15 mL tube, the following was added: 2 ug XBP1 luciferase reporter plasmid (PGK-Luc2-P2A-XBP1u-Nanoluciferase-Pest); 300 ul EC buffer; and 16 ul Enhancer, followed by incubation at room temp for 5 minutes. Next, 60 ul Effectene (Qiagen 301427) was added, followed by incubation at room temperature for 10 minutes. 2.6 mL cDMEM media was added. Old media was aspirated from the cells, followed by addition of 7 mL fresh media. Full transfection mixture was added dropwise to cells. Cells were incubated for 6 hours, followed by trypsinization, centrifugation and resuspension in 11 mL fresh cDMEM media. 100 uL of cells were plated per a well in a 96 well plate. A day later, ER stressors of choice +/−inhibitors were added. To harvest, media was aspirated from cells completely, then 50 uL 1× passive lysis buffer (Promega: E1941) was added per well and put on shaker (300 rpm) for 30 minutes at room temperature. Cells were centrifuged, and 15 uL sample per well was added to a new, opaque white 384 well plate (Corning 3570). 15 uL OneGlo (nanoluciferase kit, Promega N1630) was added. Plates were spun down, placed on shaker (300 rpm) for 10 minutes. Plates were read on luminometer, 1000 ms integration time per well. 15 uL Stop an Glo (nanoluciferase kit) was added. Plates were spun down, placed on shaker (300 rpm) for 10 minutes. Plates were read on luminometer, 1000 ms second integration time per well. Recordings are provided below in Table 4.

T1 sequence (O75460 19-977): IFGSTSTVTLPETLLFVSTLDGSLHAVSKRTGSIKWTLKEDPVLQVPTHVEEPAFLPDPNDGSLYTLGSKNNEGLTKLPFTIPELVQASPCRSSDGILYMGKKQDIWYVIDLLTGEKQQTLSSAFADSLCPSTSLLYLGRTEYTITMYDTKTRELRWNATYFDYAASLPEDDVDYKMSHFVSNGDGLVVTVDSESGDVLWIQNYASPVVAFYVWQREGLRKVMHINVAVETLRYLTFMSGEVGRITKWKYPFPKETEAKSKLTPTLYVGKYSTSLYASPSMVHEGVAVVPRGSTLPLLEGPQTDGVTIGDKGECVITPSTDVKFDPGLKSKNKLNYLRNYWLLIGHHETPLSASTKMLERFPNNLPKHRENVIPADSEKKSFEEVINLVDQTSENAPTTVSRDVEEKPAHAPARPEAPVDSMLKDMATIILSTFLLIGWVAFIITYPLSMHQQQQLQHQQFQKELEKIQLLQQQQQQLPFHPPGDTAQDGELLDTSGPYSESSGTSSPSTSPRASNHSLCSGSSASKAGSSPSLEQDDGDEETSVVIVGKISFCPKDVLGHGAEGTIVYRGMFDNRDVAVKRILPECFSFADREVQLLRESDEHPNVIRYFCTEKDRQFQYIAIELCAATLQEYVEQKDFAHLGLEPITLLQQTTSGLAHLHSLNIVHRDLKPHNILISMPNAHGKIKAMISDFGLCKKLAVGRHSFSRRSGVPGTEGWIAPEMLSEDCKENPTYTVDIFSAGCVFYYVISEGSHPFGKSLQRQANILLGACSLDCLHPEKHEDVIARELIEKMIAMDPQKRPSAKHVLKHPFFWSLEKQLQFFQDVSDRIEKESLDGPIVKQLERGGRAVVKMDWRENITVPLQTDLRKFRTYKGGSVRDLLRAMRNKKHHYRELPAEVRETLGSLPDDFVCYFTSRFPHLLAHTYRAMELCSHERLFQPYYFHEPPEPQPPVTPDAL

pIC50 (IRE1a [1])	pEC50 (IRE1a [2])	Compound
≥ 8.30	≥ 8.30	CCc1cc(-c2ccc(NS(=O)(=O)c3cccc(F)c3Cl)nc2C)cc2cnc(N[C@H]3CC[C@H](N(C)C)CC3)nc12 [Compound 158, 2-chloro-N-(5-(2-(((1r,4r)-4-(dimethylamino)cyclohexyl)amino)-8-ethylquinazolin-6-yl)-6-methylpyridin-2-yl)-3-fluorobenzenesulfonamide]
≥ 8.30	≥ 8.30	CCc1cc(-c2ccc(NS(=O)(=O)c3ccccc3Cl)c(F)c2)cc2cnc(N[C@@H]3CC[C@@H](N)[C@H](C)C3)nc12 [Compound 74, N-(4-(2-(((1R,3R,4R)-4-amino-3-methylcyclohexyl)amino)-8-ethylquinazolin-6-yl)-2-fluorophenyl)-2-chlorobenzene-sulfonamide]
≥ 8.30	7.30 to 8.30	Cc1nc(NS(=O)(=O)c2ccccc2Cl)c(F)cc1-c1ccc2nc(N[C@H]3CC[C@H](N(C)C)CC3)ncc2c1 [Compound 153, 2-chloro-N-(5-(2-(((1r,4r)-4-(dimethylamino)cyclohexyl)amino)quinazolin-6-yl)-3-fluoro-6-methylpyridin-2-yl)benzenesulfonamide]
≥ 8.30	5.00 to 7.00	N[C@H]1CCC[C@@H](Nc2ncc3cc(-c4ccc(NS(=O)(=O)c5ccccc5Cl)c(F)c4)ccc3n2)C1 [Compound 75, N-(4-(2-(((1R,3S)-3-aminocyclohexyl)amino)quinazolin-6-yl)-2-fluorophenyl)-2-chlorobenzene-sulfonamide]
≥ 8.30	7.30 to 8.30	CCc1cc(-c2ccc(NS(=O)(=O)c3ccccc3Cl)c(F)c2)cc2cnc(N[C@@H]3CC[C@H](N)C3)nc12 [Compound 79, N-(4-(2-(((1R,3S)-3-aminocyclopentyl)amino)-8-ethylquinazolin-6-yl)-2-fluorophenyl)-2-chlorobenzene-sulfonamide]
≥ 8.30	≥ 8.30	CCc1cc(-c2ccc(NS(=O)(=O)c3ccccc3Cl)c(F)c2)cc2cnc(N[C@H]3CC[C@H](N4CCCC4)CC3)nc12 [Compound 88, 2-chloro-N-(4-(8-ethyl-2-(((1r,4r)-4-(pyrrolidin-1-yl)cyclohexyl)amino)quinazolin-6-yl)-2-fluorophenyl) benzenesulfon-amide]
≥ 8.30	≥ 8.30	COc1nc(NS(=O)(=O)c2ccccc2Cl)ccc1-c1cc(C(C)(F)F)c2nc(N[C@H]3CC[C@H](N(C)C)CC3)ncc2c1 [Compound 124, 2-chloro-N-(5-(8-(1,1-difluoroethyl)-2-(((1r,4r)-4-(dimethylamino)cyclohexyl)amino)quinazolin-6-yl)-6-methoxypyridin-2-yl)benzenesulfonamide]
≥ 8.30	≥ 8.30	CCc1cc(-c2ccc(NS(=O)(=O)c3cccc(C)c3Cl)nc2C)cc2cnc(N[C@H]3CC[C@H](N(C)C)CC3)nc12 [Compound 160, 2-chloro-N-(5-(2-(((1r,4r)-4-(dimethylamino)cyclohexyl)amino)-8-ethylquinazolin-6-yl)-6-methylpyridin-2-yl)-3-methylbenzenesulfonamide]
≥ 8.30	≥ 8.30	CCc1cc(-c2ccc(NS(=O)(=O)c3cccc(Cl)c3Cl)nc2C)cc2cnc(N[C@H]3CC[C@H](N(C)C)CC3)nc12 [Compound 152, 2,3-dichloro-N-(5-(2-(((1r,4r)-4-(dimethylamino)cyclohexyl)amino)-8-ethylquinazolin-6-yl)-6-methylpyridin-2-yl)benzenesulfonamide]
≥ 8.30	≥ 8.30	N[C@H]1CC[C@H](Nc2ncc3cc(-c4ccc(NS(=O)(=O)c5ccccc5Cl)c(F)c4F)ccc3n2)CC1 [Compound 56, N-(4-(2-(((1r,4r)-4-aminocyclohexyl)amino)quinazolin-6-yl)-2,3-difluorophenyl)-chlorobenzene-sulfonamide]
≥ 8.30	≥ 8.30	NC12CCC(Nc3ncc4cc(-c5ccc(NS(=O)(=O)c6ccccc6Cl)c(F)c5)ccc4n3)(CC1)CC2 [Compound 81, N-(4-(2-((4-aminobicyclo[2.2.2]octan-1-yl)amino)quinazolin-6-yl)-2 fluorophenyl)-2-chlorobenzene-sulfonamide]
≥ 8.30	7.30 to 8.30	CCc1cc(-c2ccc(NS(=O)(=O)c3ccccc3Cl)c(F)c2)cc2cnc(N[C@H]3CC4C[C@@H](N)CC4C3)nc12 (some centres unmarked) [Compound 84]
≥ 8.30	≥ 8.30	CCc1cc(-c2cc(F)c(NS(=O)(=O)c3ccccc3Cl)nc2OC)cc2cnc(N[C@H]3CC[C@H](NC)CC3)nc12 [Compound 127, 2-chloro-N-(5-(8-ethyl-2-(((1r,4r)-4-(methylamino)cyclohexyl)amino)quinazolin-6-yl)-3-fluoro-6-methoxypyridin-2-yl)benzenesulfonamide]
–	≥ 8.30	CCc1cc(-c2ccc(NS(=O)(=O)c3ccccc3Cl)c(F)c2)cc2cnc(N[C@H]3CCCNC3)nc12 [Compound 73, (S)-2-chloro-N-(4-(8-ethyl-2-(piperidin-3-ylamino)quinazolin-6-yl)-2-fluoropbenyl) benzenesulfon-amide]
≥ 8.30	7.30 to 8.30	COc1nc(NS(=O)(=O)c2ccccc2Cl)c(F)cc1-c1ccc2nc(N[C@H]3CC[C@H](N(C)C)CC3)ncc2c1 [Compound 149, 2-chloro-N-(5-(2-(((1r,4r)-4-(dimethylamino)cyclohexyl)amino)quinazolin-6-yl)-3-fluoro-6-methoxypyridin-2-yl)benzenesulfonamide]
≥ 8.30	≥ 8.30	CCc1cc(-c2ccc(NS(=O)(=O)c3ccccc3C)nc2OC)cc2cnc(N[C@H]3CC[C@H](N(C)C)CC3)nc12 [Compound 119, N-(5-(2-(((1r,4r)-4-(dimethylamino)cyclohexyl)amino)-8-ethylquinazolin-6-yl)-6-methoxypyridin-2-yl)-2-methylbenzenesulfonamide]
≥ 8.30	7.00 to 7.30	NC12CCC(Nc3ncc4cc(-c5ccc(NS(=O)(=O)c6ccccc6Cl)c(F)c5)ccc4n3)(CC1)C2 [Compound 86]
–	≥ 8.30	CCc1cc(-c2ccc(NS(=O)(=O)c3ccccc3Cl)c(F)c2)cc2cnc(N[C@H]3CC[C@H](NC(=O)[C@@H](N)C(C)C)CC3)nc12 [Compound 58, (S)-2-amino-N-((1r,4S)-4-((6-(4-((2-chlorophenyl)sulfonamido)-3-fluorophenyl)-8-ethylquinazolin-2-yl)amino)cyclohexyl)-3-methylbutanamide]
≥ 8.30	≥ 8.30	COc1nc(NS(=O)(=O)c2ccccc2Cl)ccc1-c1cc2cnc(N[C@H]3CC[C@H](N(C)C)CC3)nc2cc1C [Compound 108, 2-chloro-N-(5-(2-(((1r,4r)-4-(dimethylamino)cyclohexyl)amino)-7-methylquinazolin-6-yl)-6-methoxypyridin-2-yl)benzenesulfonamide]
–	≥ 8.30	CCc1cc(-c2ccc(NS(=O)(=O)c3ccccc3Cl)c(F)c2)cc2cnc(N[C@@H]3CC[C@H](N)[C@H](C)C3)nc12 [Compound 70, N-(4-(2-(((1R,3R,4S)-4-amino-3-methylcyclohexyl)amino)-8-ethylquinazolin-6-yl)-2-fluorophenyl)-2-chlorobenzene-sulfonamide]
–	5.00 to 7.00	N[C@H]1CC[C@@H](Nc2ncc3cc(-c4ccc(NS(=O)(=O)c5ccccc5Cl)c(F)c4)ccc3n2)C1 [Compound 80, N-(4-(2-(((1R,3S)-3-aminocyclopentyl)amino)quinazolin-6-yl)-2-fluorophenyl)-2-chlorobenzene-sulfonamide]
